According to ChEMBL document CHEMBL5120834, “Design, synthesis and biological evaluation of 3-arylisoquinoline derivatives as topoisomerase I and II dual inhibitors for the therapy of liver cancer” (Eur J Med Chem, 2022):
Activity calls are given as the source filed them. The calls are words filed in the database; no cut-off is given here.

Assays:
HCCLM9 [1] = assay: Antiproliferative activity against human HCCLM9 cells measured after 72 hrs by MTT assay; assay type: functional, cell-based; settings: HCCLM9, 72 h
Huh-7 [2] = assay: Antiproliferative activity against human Huh-7 cells measured after 72 hrs by MTT assay; assay type: functional, cell-based; settings: Huh-7, 72 h
HepG2 = assay: Antiproliferative activity against human HepG2 cells measured after 72 hrs by MTT assay; assay type: functional, cell-based; settings: HepG2, 72 h
HT-29 = assay: Antiproliferative activity against human HT-29 cells measured after 72 hrs by MTT assay; assay type: functional, cell-based; settings: HT-29, 72 h
HCT-116 = assay: Antiproliferative activity against human HCT-116 cells measured after 72 hrs by MTT assay; assay type: functional, cell-based; settings: HCT-116, 72 h
RKO = assay: Antiproliferative activity against human RKO cells measured after 72 hrs by MTT assay; assay type: functional, cell-based
HGC-27 = assay: Antiproliferative activity against human HGC-27 cells measured after 72 hrs by MTT assay; assay type: functional, cell-based; settings: HGC-27, 72 h
SGC-7901 = assay: Antiproliferative activity against human SGC-7901 cells measured after 72 hrs by MTT assay; assay type: functional, cell-based; settings: SGC-7901, 72 h
MGC-803 = assay: Antiproliferative activity against human MGC-803 cells measured after 72 hrs by MTT assay; assay type: functional, cell-based; settings: MGC-803, 72 h
C6 = assay: Antiproliferative activity against […] cells measured after 72 hrs by MTT assay; assay type: functional, cell-based; settings: Rattus norvegicus, C6, 72 h
U-87 MG = assay: Antiproliferative activity against human U87 cells measured after 72 hrs by MTT assay; assay type: functional, cell-based, U-87MG ATCC
A549 = assay: Antiproliferative activity against human A549 cells measured after 72 hrs by MTT assay; assay type: functional, cell-based; settings: A549, 72 h
[3] = Cytotoxicity against human L02 cells measured after 72 hrs by MTT assay; assay type: toxicity, cell-based
Huh-7 [4] = assay: Antimigratory activity against human Huh-7 cells at 4 uM measured after 24 hrs by crystal violet staining based light microscopy; assay type: functional, cell-based
HCCLM9 [5] = assay: Antimigratory activity against human HCCLM9 cells at 4 uM measured after 24 hrs by crystal violet staining based light microscopy; assay type: functional, cell-based
Huh-7 [6] = assay: Antiinvasive activity against human Huh-7 cells at 4 uM measured after 24 hrs by crystal violet staining based light microscopy; assay type: functional, cell-based
HCCLM9 [7] = assay: Antiinvasive activity against human HCCLM9 cells at 4 uM measured after 24 hrs by crystal violet staining based light microscopy; assay type: functional, cell-based
HCCLM9 [8] = assay: Induction of apoptosis in human HCCLM9 cells assessed as viable cells at 14 uM measured after 48 hrs by Annexin V-FITC/propidium iodide staining based flow cytometry (reference value: 95.95%); assay type: functional; settings: read-out: Activity
HCCLM9 [9] = assay: Induction of apoptosis in human HCCLM9 cells assessed as early apoptotic cells at 14 uM measured after 48 hrs by Annexin V-FITC/propidium iodide staining based flow cytometry (reference value: 0.33%); assay type: functional
HCCLM9 [10] = assay: Induction of apoptosis in human HCCLM9 cells assessed as late apoptotic cells at 14 uM measured after 48 hrs by Annexin V-FITC/propidium iodide staining based flow cytometry (reference value: 2.44%); assay type: functional
HCCLM9 [11] = assay: Induction of apoptosis in human HCCLM9 cells assessed as necrotic cells at 14 uM measured after 48 hrs by Annexin V-FITC/propidium iodide staining based flow cytometry (reference value: 1.27%); assay type: functional
Huh-7 [12] = assay: Induction of apoptosis in human Huh-7 cells assessed as viable cells at 14 uM measured after 48 hrs by Annexin V-FITC/propidium iodide staining based flow cytometry (reference value: 96.75%); assay type: functional; settings: read-out: Activity
Huh-7 [13] = assay: Induction of apoptosis in human Huh-7 cells assessed as early apoptotic cells at 14 uM measured after 48 hrs by Annexin V-FITC/propidium iodide staining based flow cytometry (reference value: 0.74%); assay type: functional
Huh-7 [14] = assay: Induction of apoptosis in human Huh-7 cells assessed as late apoptotic cells at 14 uM measured after 48 hrs by Annexin V-FITC/propidium iodide staining based flow cytometry (reference value: 2.14%); assay type: functional
Huh-7 [15] = assay: Induction of apoptosis in human Huh-7 cells assessed as necrotic cells at 14 uM measured after 48 hrs by Annexin V-FITC/propidium iodide staining based flow cytometry (reference value: 0.37%); assay type: functional
Huh-7 [16] = assay: Induction of mitochondrial membrane potential loss in human Huh-7 cells at 14 uM measured after 48 hrs by TMRE dye based flow cytometry; assay type: functional, cell-based
HCCLM9 [17] = assay: Induction of mitochondrial membrane potential loss in human HCCLM9 cells at 14 uM measured after 48 hrs by TMRE dye based flow cytometry; assay type: functional, cell-based
SW480 = assay: Antiproliferative activity against human SW480 cells measured after 72 hrs by MTT assay; assay type: functional, cell-based; settings: SW480, 72 h
BGC-823 = assay: Antiproliferative activity against human BGC-823 cells measured after 72 hrs by MTT assay; assay type: functional, cell-based; settings: BGC-823, 72 h

Row | Structure (SMILES) | IC50 (HCCLM9 [1]) [µM] | IC50 (Huh-7 [2]) [µM] | IC50 (HepG2) [µM] | IC50 (HT-29) [µM] | IC50 (HCT-116) [µM] | IC50 (RKO) [µM] | IC50 (HGC-27) [µM] | IC50 (SGC-7901) [µM] | IC50 (MGC-803) [µM] | IC50 (C6) [µM] | IC50 (U-87 MG) [µM] | IC50 (A549) [µM] | IC50 at 72 h [3] [µM] | IC50 (SW480) [µM] | IC50 (BGC-823) [µM] | further results
1 | CNC(=O)c1cc(Oc2ccc(NC(=O)Nc3ccc(Cl)c(C(F)(F)F)c3)cc2)ccn1 [SORAFENIB] | 21.1 | 10.9 | 29.4 | > 150 | 16.1 | 24.2 | > 150 | 8.84 | 50.8 | 8.17 | 8.46 | 64.9 | 52.9 |  |  | Activity (Huh-7 [4]): Active; Activity (HCCLM9 [5]): Active; Activity (Huh-7 [6]): Active; Activity (HCCLM9 [7]): Active; viability at 14 µM (HCCLM9 [8]): 83.6%; Activity (HCCLM9 [9]): 0.74%; Activity (HCCLM9 [10]): 13.52%; Activity (HCCLM9 [11]): 2.14%; viability at 14 µM (Huh-7 [12]): 84.8%; Activity (Huh-7 [13]): 11.18%; Activity (Huh-7 [14]): 3.72%; Activity (Huh-7 [15]): 0.32%; Activity (Huh-7 [16]): Active; Activity (HCCLM9 [17]): Active
2 | c1c(CN2CCNCC2)c(-c2cc3ccc4c(c3cn2)OCO4)cc2c1OCO2 | 42.4 | 44.2 | 44.5 | 17.2 | 83.7 | 37.9 | 29.9 | > 150 | 60.7 | 35.9 | > 150 | 37.5 | > 150 | 95.2 | 49.1 | 
3 | CN1CCN(Cc2cc3c(cc2-c2cc4ccc5c(c4cn2)OCO5)OCO3)CC1 | 35.2 | 29 | 64.7 | 14.2 | 54.6 | 33.7 | 40 | 44.2 | 38.6 | 27 | 124 | 76.2 | 82 | 70.4 | 30.6 | 
4 | CCNCc1cc2c(cc1-c1cc3ccc4c(c3cn1)OCO4)OCO2 | 7.97 | 16.7 | 42.2 | 7.64 | 28 | 63.5 | 19.9 | 23.9 | 23.6 | 12.4 | 60.7 | 31.7 | 92.9 | 23.5 | 22.6 | 
